The values that follow come from PMC11040327 (RSC Advances, 2024).

The structures appear in SMILES notation. Read-outs that look alike come from different tables or passages of the source.

Data set [1] concerns HCT-116 cells. Nature of the data set: MTT cytotoxicity assay against HCT-116 cells. In kind it is cell-based.
Data set [2] deals with VEGFR2 (Homo sapiens, UniProt P35968). The data set can be described thus: VEGFR2 kinase inhibition assay. In kind it is biochemical. The note with it: for inhibition at 10 µM: read-out: VEGFR2 % Of inhibition at [10 μM], 10 μM compound.
Chain of VEGFR2 (P35968 20-1356): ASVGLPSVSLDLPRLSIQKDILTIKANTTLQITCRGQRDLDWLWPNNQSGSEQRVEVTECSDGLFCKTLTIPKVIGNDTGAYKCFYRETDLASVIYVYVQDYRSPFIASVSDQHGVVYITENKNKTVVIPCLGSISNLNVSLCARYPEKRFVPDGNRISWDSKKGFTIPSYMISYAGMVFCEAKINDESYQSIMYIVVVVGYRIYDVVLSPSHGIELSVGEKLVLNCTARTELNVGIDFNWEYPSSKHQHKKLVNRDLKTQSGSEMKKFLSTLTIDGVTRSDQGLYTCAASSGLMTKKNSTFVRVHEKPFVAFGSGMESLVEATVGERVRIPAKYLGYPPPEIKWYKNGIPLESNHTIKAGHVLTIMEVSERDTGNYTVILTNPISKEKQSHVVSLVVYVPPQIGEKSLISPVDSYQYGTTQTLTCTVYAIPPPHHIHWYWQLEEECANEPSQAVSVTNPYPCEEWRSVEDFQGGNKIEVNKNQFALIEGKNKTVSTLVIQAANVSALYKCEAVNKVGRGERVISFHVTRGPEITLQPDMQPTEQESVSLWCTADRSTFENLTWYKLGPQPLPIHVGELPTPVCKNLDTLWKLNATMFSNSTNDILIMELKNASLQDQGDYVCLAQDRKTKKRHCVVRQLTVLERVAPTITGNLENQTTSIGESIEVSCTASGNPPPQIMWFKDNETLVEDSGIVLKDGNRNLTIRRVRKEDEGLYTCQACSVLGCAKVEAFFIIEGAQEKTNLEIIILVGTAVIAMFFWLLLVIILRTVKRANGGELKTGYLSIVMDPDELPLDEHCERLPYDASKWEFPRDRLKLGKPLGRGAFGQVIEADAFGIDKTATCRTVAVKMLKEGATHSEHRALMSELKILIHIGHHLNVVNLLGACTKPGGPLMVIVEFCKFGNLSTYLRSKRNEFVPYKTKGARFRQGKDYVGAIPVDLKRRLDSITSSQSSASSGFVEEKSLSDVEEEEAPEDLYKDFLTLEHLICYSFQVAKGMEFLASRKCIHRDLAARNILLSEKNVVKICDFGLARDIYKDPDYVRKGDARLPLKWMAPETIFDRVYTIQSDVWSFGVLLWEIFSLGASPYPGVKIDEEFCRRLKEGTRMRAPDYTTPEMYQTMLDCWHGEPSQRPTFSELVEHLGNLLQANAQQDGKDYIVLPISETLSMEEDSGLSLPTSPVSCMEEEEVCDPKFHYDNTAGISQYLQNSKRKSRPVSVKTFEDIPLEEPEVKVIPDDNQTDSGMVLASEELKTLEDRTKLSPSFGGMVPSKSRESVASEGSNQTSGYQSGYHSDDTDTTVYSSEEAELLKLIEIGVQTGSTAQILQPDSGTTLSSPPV
For data set [3], the system named is HCT-116 cells. The data set can be described thus: Annexin V/PI flow cytometry for apoptosis in HCT-116 cells. The settings on record: treated at IC50 for 48 h. In kind it is cell-based.
[4] abbreviates: Homo sapiens, HCT-116, 48 h, read-out: IC50 (μM) ± SD, cytotoxicity against HCT-116 cells, HCT-116 cells, MTT assay, 48 h, three independent trials.

As to `NNC(=O)CCn1nc(Cc2ccccc2)c2ccccc2c1=O` [Compound 5, 3-(4-benzyl-1-oxophthalazin-2(1H)-yl) propanehydrazide], the IC50 in data set [1] (setting [4]) was found to be 13.8 ± 0.2 µM. Turning to `O=C(CCn1nc(Cc2ccccc2)c2ccccc2c1=O)N1CCOCC1` [Compound 7b, 4-benzyl-2-(3-morpholino-3-oxopropyl) phthalazin-1(2H)-one], the IC50 in data set [1] (setting [4]) stood at 24.3 ± 1.5 µM. The same measure, in the same setting: in the case of `C=CCNC(=O)CCn1nc(Cc2ccccc2)c2ccccc2c1=O` [Compound 7a, N-allyl-3-(4-benzyl-1-oxophthalazin-2(1H)-yl)propanamide] it was 34.8 ± 1.9 µM; in that of `CCCCNC(=O)CCn1nc(Cc2ccccc2)c2ccccc2c1=O` [Compound 7f, 3-(4-benzyl-1-oxophthalazin-2(1H)-yl)-N-butylpropanamide], 18.8 ± 0.6 µM. For the compound `O=C(CCn1nc(Cc2ccccc2)c2ccccc2c1=O)N1CCCCC1` [Compound 7d, 4-benzyl-2-(3-oxo-3-(piperidin-1-yl)propyl) phthalazin-1(2H)-one], the inhibition at 10 µM in data set [2] worked out at 97.6%. Also, the “apoptosis induction, fold versus untreated cells” value in data set [3] is 23.6 fold. For the compound `COc1ccc(/C=N\NC(=O)CNC(=O)CCn2nc(Cc3ccccc3)c3ccccc3c2=O)cc1` [Compound 13c, (Z)-3-(4-benzyl-1-oxophthalazin-2(1H)-yl)-N-(2-(2-(4-methoxybenzylidene) hydrazinyl)-2-oxoethyl)propanamide], the IC50 in data set [1] (setting [4]) was 0.64 ± 0.05 µM; in data set [2] (VEGFR2 IC50 [nM] ± SD, five concentrations, three replicates) it was 19.8 ± 0.6 nM. Further, the “VEGFR2 % Of inhibition at [10 μM]” value in data set [2] (10 μM compound, 10 µM) was 96.4 ± 2.8%. Moreover, the inhibition at 10 µM in data set [2] was 95.2%. In the case of `O=C(CCn1nc(Cc2ccccc2)c2ccccc2c1=O)NCC(=O)N/N=C\c1ccc([N+](=O)[O-])cc1` [Compound 13a, (Z)-3-(4-benzyl-1-oxophthalazin-2(1H)-yl)-N-(2-(2-(4-nitrobenzylidene) hydrazinyl)-2-oxoethyl)propanamide], in data set [1] (setting [4]), the IC50 came to 45.7 ± 1.8 µM. `CNC(=O)c1cc(Oc2ccc(NC(=O)Nc3ccc(Cl)c(C(F)(F)F)c3)cc2)ccn1` [Sorafenib, reference compound]: the IC50 in data set [1] (setting [4]) came out at 2.93 µM; in data set [1] (read-out: IC50 (μM) ± SD, cytotoxicity against HCT-116 cells, HCT-116 cells, MTT assay, 48 h, three independent trials), 3.23 ± 0.03 µM.
